Measurements from patent publication US20150030668A1 (priority 2012, published 2015).
Read-outs that look alike come from different tables or passages of the source.

Legend:
[1] = system: Mycobacterium tuberculosis; conditions: NAC at 10 millimolar
[2] = rat liver, CO-60, control (water) = 0%
Description: The tissue from the control animals (water) served as the 100% of the toxin remaining in the tissue. The animals receiving: • a.

[3] = system: aflatoxin B1-induced hepatic nodules or tumors; conditions: mouse, in vivo; cited from earlier work

Compound	CFU/ml reduced to [1]	removal of the toxin [2] [%]	removal of the toxin ([2]; listed as Intravenous glutathione) [%]	decreasing the incidence or size of hepatic nodules or tumors [3]
CC(=O)N[C@@H](CS)C(=O)O [NAC, N-acetyl cysteine]	8,000 CFU/ml			
N[C@@H](CCC(=O)N[C@@H](CS)C(=O)NCC(=O)O)C(=O)O [Plain glutathione, glutathione (reduced)]		10	70	no benefit
